# From the kinase profiling compilation of Christmann-Franck et al. (2016)
# What was measured:
# Experiment in all cases: KINOMEscan competition binding
# Details in all cases: compound 10.0 µM
# [1] = target: SIK2 (human) (UniProt Q9H0K1)
# [2] = target: MAP4K5 (human) (UniProt Q9Y4K4)
# [3] = target: MAPK6 (human) (UniProt Q16659)
# [4] = target: MAP3K4 (human) (UniProt Q9Y6R4)
# [5] = target: PKN3 (M.tuberculosis) (UniProt Q6P5Z2)
# [6] = target: CDC42BPG (human) (UniProt Q6DT37)
# [7] = target: PKN2 (human) (UniProt Q16513)
# [8] = target: PKMYT1 (human) (UniProt Q99640)
# [9] = target: SIK1 (human) (UniProt P57059)
# [10] = target: TEC (human) (UniProt P42680)
# [11] = target: KIT (human) (UniProt P10721)
# [12] = target: MYLK2 (human) (UniProt Q9H1R3)
# [13] = test system: FGFR3 (human), P22607 [G697C]
# [14] = target: PRKAA1 (human) (UniProt Q13131)
# [15] = target: PAK1 (human) (UniProt Q13153)
# [16] = target: PRKD3 (human) (UniProt O94806)
# [17] = target: ANKK1 (human) (UniProt Q8NFD2)
# [18] = target: PRKCH (human) (UniProt P24723)
# [19] = target: IRAK1 (human) (UniProt P51617)
# [20] = target: BMPR1A (human) (UniProt P36894)
# [21] = test system: LRRK2 (human), Q5S007 [G2019S]
# [22] = target: CDK18 (human) (UniProt Q07002)
# [23] = target: FGFR3 (human) (UniProt P22607)
# [24] = target: EPHB4 (human) (UniProt P54760)
# [25] = target: STK25 (human) (UniProt O00506)
# [26] = target: ROCK2 (human) (UniProt O75116)
# [27] = target: LCK (human) (UniProt P06239)
# [28] = target: PIP5K1C (human) (UniProt O60331)
# [29] = target: TTK (human) (UniProt P33981)
# [30] = target: CAMK2G (human) (UniProt Q13555)
# [31] = target: RPS6KA6 KD2 (human) (UniProt Q9UK32)
# [32] = target: CDKL2 (human) (UniProt Q92772)
# [33] = target: RET (human) (UniProt P07949)
# [34] = target: TNK2 (human) (UniProt Q07912)
# [35] = target: CDK13 (human) (UniProt Q14004)
# [36] = target: NEK9 (human) (UniProt Q8TD19)
# [37] = target: PDGFRB (human) (UniProt P09619)
# [38] = target: STK10 (human) (UniProt O94804)
# [39] = target: FGFR2 (human) (UniProt P21802)
# [40] = target: MAP3K5 (human) (UniProt Q99683)
# [41] = target: GAK (human) (UniProt O14976)
# Sequence of PKN3 (M.tuberculosis) (Q6P5Z2 whole entry, looked up): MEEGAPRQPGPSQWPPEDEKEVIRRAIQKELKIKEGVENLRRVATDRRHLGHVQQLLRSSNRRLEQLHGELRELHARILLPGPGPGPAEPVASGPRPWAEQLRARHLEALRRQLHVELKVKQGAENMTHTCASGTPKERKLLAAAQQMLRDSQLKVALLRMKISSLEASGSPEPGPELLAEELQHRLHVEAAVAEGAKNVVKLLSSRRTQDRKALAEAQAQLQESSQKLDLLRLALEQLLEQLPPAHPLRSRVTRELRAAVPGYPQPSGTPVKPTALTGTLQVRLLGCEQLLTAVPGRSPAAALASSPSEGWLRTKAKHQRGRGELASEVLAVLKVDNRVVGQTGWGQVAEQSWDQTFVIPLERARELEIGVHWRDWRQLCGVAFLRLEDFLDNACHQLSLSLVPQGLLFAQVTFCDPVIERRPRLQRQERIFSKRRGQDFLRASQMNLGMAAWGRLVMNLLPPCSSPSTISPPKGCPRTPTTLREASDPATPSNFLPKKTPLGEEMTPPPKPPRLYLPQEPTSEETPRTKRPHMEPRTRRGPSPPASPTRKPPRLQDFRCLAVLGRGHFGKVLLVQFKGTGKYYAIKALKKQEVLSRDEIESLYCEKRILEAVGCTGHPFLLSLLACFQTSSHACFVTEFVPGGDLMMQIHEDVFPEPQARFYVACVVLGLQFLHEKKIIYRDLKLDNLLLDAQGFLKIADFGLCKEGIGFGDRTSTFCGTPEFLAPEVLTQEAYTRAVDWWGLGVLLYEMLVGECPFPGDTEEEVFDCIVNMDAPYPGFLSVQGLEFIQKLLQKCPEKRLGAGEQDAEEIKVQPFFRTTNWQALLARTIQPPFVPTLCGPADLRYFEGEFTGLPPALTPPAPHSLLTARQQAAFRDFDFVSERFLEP
# Sequence of KIT (human) (P10721 whole entry, looked up): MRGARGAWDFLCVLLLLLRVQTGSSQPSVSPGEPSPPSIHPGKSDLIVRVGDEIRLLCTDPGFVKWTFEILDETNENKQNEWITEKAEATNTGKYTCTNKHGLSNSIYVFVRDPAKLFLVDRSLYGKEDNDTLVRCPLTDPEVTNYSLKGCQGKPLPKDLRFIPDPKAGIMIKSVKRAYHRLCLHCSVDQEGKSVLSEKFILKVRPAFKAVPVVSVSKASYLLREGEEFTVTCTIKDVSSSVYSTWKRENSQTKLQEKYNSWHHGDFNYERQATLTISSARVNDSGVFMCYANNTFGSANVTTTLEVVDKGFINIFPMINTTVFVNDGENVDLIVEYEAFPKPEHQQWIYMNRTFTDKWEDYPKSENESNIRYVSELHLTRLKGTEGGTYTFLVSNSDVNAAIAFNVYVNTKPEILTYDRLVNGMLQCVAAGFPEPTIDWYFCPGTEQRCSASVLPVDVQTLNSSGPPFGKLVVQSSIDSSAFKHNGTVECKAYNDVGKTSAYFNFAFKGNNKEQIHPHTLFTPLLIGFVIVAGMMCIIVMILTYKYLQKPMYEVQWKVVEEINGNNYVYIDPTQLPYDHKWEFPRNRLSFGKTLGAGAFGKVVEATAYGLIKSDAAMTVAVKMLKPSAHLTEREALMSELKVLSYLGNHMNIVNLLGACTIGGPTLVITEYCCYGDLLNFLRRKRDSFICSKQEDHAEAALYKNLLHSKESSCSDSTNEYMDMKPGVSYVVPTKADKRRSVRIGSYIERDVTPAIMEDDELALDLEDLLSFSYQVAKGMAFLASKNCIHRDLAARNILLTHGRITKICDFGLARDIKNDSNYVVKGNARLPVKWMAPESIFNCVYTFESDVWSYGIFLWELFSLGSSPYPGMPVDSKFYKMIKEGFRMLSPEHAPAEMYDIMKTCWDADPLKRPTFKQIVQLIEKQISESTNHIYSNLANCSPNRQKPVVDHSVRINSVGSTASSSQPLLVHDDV
# Sequence of FGFR2 (human) (P21802 whole entry, looked up): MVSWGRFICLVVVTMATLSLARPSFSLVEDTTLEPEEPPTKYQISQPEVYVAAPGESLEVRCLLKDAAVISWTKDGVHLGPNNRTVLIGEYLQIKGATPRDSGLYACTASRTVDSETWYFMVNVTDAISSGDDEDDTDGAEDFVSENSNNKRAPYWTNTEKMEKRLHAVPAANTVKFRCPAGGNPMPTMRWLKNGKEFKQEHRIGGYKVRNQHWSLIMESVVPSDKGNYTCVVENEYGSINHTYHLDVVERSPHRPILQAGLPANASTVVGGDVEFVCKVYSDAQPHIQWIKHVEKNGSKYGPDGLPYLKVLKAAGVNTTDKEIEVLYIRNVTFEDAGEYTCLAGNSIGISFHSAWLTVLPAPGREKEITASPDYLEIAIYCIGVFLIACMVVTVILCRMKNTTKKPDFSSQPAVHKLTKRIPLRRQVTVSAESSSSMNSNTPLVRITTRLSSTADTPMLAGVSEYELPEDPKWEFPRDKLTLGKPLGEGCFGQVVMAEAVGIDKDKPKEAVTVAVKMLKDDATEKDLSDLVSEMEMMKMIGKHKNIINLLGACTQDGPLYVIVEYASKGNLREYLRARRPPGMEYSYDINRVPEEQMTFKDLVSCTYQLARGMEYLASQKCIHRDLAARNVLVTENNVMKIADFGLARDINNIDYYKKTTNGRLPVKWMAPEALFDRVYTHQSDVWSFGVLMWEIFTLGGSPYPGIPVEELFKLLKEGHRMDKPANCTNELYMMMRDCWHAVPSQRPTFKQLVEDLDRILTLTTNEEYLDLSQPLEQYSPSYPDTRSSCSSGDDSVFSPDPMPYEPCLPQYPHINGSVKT
# Sequence of PRKAA1 (human) (Q13131 whole entry, looked up): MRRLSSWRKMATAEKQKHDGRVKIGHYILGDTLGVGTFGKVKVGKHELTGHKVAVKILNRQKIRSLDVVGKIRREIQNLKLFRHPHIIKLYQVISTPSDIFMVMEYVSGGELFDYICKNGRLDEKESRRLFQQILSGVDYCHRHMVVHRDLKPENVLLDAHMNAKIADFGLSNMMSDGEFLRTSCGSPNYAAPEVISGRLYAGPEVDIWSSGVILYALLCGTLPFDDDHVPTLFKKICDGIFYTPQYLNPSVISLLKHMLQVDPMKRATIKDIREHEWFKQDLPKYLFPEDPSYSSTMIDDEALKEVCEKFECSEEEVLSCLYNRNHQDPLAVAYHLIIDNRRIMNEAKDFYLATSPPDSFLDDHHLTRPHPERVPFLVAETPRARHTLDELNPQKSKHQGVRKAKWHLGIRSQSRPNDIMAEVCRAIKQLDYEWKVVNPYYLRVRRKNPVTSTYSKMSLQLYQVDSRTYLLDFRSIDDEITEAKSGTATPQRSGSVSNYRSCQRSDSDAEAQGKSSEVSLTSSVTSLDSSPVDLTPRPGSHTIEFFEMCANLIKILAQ
# Sequence of PAK1 (human) (Q13153 whole entry, looked up): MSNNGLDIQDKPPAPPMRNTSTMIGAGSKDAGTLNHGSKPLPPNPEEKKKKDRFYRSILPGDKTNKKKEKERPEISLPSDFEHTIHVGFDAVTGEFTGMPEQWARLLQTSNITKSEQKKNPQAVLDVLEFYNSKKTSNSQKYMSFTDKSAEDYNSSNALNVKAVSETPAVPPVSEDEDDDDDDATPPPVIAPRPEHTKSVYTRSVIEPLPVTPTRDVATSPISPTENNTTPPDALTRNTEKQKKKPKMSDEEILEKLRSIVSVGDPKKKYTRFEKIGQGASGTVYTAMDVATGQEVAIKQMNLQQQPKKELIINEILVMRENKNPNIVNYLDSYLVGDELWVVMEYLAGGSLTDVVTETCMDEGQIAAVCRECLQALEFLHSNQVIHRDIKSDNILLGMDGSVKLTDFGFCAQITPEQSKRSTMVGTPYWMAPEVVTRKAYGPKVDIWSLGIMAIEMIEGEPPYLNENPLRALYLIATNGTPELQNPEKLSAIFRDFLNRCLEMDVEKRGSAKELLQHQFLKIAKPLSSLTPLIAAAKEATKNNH
# Sequence of PRKD3 (human) (O94806 whole entry, looked up): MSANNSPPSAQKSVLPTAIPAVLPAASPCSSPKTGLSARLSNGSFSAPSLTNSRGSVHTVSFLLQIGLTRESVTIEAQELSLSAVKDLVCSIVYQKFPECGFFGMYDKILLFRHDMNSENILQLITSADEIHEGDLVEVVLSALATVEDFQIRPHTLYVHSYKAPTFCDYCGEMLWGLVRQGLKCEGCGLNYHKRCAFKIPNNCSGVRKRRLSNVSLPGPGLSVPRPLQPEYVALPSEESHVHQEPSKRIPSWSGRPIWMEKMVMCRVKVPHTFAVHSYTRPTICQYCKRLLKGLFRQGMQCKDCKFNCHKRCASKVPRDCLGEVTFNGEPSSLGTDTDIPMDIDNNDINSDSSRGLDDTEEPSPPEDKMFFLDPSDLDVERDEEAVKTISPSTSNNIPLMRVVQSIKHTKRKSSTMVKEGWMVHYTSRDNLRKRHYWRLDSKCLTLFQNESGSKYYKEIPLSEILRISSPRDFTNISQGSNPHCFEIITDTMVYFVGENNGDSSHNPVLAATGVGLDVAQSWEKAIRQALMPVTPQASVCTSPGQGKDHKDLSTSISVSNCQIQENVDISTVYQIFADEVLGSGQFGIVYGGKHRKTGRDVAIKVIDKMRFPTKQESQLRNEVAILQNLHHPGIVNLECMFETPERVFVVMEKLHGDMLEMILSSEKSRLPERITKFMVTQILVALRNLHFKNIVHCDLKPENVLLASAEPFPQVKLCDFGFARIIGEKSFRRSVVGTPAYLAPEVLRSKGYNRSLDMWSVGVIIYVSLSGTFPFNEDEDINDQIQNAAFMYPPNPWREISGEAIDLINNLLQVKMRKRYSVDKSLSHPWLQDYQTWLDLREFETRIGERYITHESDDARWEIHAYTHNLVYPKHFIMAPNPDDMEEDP
smiles,measurement,setting,value
COC(=O)Nc1ccc(-c2nc(N3CCOCC3)c3cnn(C4CCN(C(=O)OC)CC4)c3n2)cc1,"kinase still bound, per cent of control",[1],100%
same,"kinase still bound, per cent of control",[2],100%
same,"kinase still bound, per cent of control",[3],100%
same,"kinase still bound, per cent of control",[4],100%
same,"kinase still bound, per cent of control",[5],73%
same,"kinase still bound, per cent of control",[6],100%
same,"kinase still bound, per cent of control",[7],100%
same,"kinase still bound, per cent of control",[8],100%
same,"kinase still bound, per cent of control",[9],100%
same,"kinase still bound, per cent of control",[10],96%
same,"kinase still bound, per cent of control",[11],100%
same,"kinase still bound, per cent of control",[12],100%
same,"kinase still bound, per cent of control",[13],100%
same,"kinase still bound, per cent of control",[14],100%
same,"kinase still bound, per cent of control",[15],95%
same,"kinase still bound, per cent of control",[16],100%
same,"kinase still bound, per cent of control",[17],97%
same,"kinase still bound, per cent of control",[18],92%
same,"kinase still bound, per cent of control",[19],100%
same,"kinase still bound, per cent of control",[20],100%
same,"kinase still bound, per cent of control",[21],80%
same,per cent of control,[22],100%
same,"kinase still bound, per cent of control",[23],99%
same,"kinase still bound, per cent of control",[24],94%
same,"kinase still bound, per cent of control",[25],78%
same,"kinase still bound, per cent of control",[26],79%
same,"kinase still bound, per cent of control",[27],88%
same,"kinase still bound, per cent of control",[28],100%
same,"kinase still bound, per cent of control",[29],100%
same,"kinase still bound, per cent of control",[30],93%
same,"kinase still bound, per cent of control",[31],96%
same,per cent of control,[32],94%
same,"kinase still bound, per cent of control",[33],93%
same,"kinase still bound, per cent of control",[34],100%
same,per cent of control,[35],100%
same,"kinase still bound, per cent of control",[36],98%
same,"kinase still bound, per cent of control",[37],100%
same,"kinase still bound, per cent of control",[38],100%
same,"kinase still bound, per cent of control",[39],100%
same,"kinase still bound, per cent of control",[40],100%
same,"kinase still bound, per cent of control",[41],94%
